These results are taken from US9725465B2, “Biaryl acetamide compounds and methods of use thereof” (Ambit Biosciences Corporation, priority 2013, dated 2017).

The target of one assay is KIT kinase (Homo sapiens (Human), UniProt P10721). Put plainly: Competition binding assay (Kd), KIT. Particulars: competition binding assay. On the procedure: In certain embodiments, competition binding assays were performed as described in Fabian et al., Nature Biotechnology 2005, 23, 329-336.
Competition binding assays used herein were developed, validated and performed as described in Fabian et al., Nature Biotechnology 2005, 23, 329-336. Kinases were produced as fusions to T7 phage (See, Fabian et al. or WO04/015142) or alternatively, the kinases were expressed in HEK-293 cells and subsequently tagged with DNA for PCR detection (See, WO08/005,310). […] The liganded beads were blocked with excess biotin and washed with blocking buffer (SeaBlock (Pierce), 1% BSA, 0.05% Tween 20, 1 mM DTT) to remove unbound ligand and to reduce non-specific binding. […] Test compounds were prepared as 100× stocks in DMSO and diluted into the aqueous environment. Kds were determined using an eleven point threefold serial dilutions. DMSO or control compounds were was added to control assays lacking a test compound. […] The kinase concentration in the eluates was measured by quantitative PCR. […]

In a further assay the target is FLT3 kinase (Homo sapiens (Human), UniProt P36888). Kind of assay: Competition binding assay (Kd), FLT3. Particulars: competition binding assay.
FLT3 kinase, sequence (P36888 27-993): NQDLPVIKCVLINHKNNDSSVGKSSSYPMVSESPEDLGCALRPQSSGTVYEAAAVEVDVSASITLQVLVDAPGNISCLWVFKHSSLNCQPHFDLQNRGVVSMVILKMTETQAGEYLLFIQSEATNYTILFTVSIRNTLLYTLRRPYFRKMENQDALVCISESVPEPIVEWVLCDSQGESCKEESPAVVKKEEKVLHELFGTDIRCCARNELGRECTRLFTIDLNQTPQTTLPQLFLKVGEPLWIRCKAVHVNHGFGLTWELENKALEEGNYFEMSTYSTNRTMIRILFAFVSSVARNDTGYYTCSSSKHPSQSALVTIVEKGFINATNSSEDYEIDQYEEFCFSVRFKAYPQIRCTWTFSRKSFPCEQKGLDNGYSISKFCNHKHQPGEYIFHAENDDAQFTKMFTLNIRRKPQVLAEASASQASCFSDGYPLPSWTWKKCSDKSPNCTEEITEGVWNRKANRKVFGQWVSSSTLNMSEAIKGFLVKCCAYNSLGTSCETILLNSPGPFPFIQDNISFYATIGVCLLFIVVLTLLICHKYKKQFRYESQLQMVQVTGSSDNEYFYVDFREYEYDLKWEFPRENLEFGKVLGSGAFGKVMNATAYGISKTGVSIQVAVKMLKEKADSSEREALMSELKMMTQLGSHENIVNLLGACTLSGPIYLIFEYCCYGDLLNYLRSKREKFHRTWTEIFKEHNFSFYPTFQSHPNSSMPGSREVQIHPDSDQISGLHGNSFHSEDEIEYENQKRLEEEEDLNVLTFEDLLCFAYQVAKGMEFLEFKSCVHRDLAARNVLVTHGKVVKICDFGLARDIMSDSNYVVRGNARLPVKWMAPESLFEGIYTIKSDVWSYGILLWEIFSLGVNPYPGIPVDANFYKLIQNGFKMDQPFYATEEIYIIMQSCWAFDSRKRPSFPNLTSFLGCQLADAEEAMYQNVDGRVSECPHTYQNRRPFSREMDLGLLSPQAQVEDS

KIT kinase, sequence (P10721 26-976): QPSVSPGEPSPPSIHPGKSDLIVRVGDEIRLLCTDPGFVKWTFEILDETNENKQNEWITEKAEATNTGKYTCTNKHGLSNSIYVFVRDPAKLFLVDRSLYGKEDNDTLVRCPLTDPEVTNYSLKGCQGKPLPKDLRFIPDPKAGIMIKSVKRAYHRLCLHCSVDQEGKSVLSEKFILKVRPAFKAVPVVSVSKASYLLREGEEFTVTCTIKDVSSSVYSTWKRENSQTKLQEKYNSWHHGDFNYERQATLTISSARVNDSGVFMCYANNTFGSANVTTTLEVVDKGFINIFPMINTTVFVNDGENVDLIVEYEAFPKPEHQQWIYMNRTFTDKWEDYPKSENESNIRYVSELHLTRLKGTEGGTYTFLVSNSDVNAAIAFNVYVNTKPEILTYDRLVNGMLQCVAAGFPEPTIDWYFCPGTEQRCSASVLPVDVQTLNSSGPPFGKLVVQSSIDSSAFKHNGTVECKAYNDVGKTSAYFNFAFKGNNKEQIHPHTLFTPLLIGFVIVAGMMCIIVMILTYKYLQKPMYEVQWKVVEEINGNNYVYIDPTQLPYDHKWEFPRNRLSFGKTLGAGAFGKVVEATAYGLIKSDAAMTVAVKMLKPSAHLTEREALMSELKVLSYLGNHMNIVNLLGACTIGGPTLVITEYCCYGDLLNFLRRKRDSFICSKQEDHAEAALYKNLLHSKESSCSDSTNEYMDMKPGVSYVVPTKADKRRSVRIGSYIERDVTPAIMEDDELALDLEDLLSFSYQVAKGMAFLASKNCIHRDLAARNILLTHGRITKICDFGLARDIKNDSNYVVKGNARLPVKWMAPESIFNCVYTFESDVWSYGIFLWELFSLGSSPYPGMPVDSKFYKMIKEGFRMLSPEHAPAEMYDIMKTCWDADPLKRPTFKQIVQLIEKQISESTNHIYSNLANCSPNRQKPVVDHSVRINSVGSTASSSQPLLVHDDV

One may read the Kd as a measure of binding affinity in units of concentration. A higher Kd goes with lower affinity. Consider `COc1cc2nc(-c3ccc(CC(=O)Nc4cc(C5(C(F)(F)F)CC5)on4)c(F)c3)cnc2cc1OCCN1CCC(F)(F)C1` [Example 82, 2-(4-(6-(2-(3,3-difluoropyrrolidin-1-yl)ethoxy)-7-methoxyquinoxalin-2-yl)-2-fluorophenyl)-N-(5-(1-(trifluoromethyl)cyclopropyl)isoxazol-3-yl)acetamide], for which the Kd on KIT kinase and at FLT3 kinase was below 5 nM throughout.

`COc1cc2nc(-c3ccc(CC(=O)Nc4cc(C5(C(F)(F)F)CC5)on4)c(F)c3)cnc2cc1Br` [Example 83, 2-(4-(6-bromo-7-methoxyquinoxalin-2-yl)-2-fluorophenyl)-N-(5-(1-(trifluoromethyl)cyclopropyl)isoxazol-3-yl)acetamide]: the dissociation constant Kd at KIT kinase and at FLT3 kinase was below 5 nM each time.

As for `COc1cc2nc(-c3ccc(CC(=O)Nc4cc(C5(C(F)(F)F)CC5)on4)c(F)c3)cnc2cc1CC(O)CO` (stereo not drawn) [Example 84, 2-(4-(6-(2,3-dihydroxypropyl)-7-methoxyquinoxalin-2-yl)-2-fluorophenyl)-N-(5-(1-(trifluoromethyl)cyclopropyl)isoxazol-3-yl)acetamide], the Kd on KIT kinase and at FLT3 kinase was below 5 nM throughout.

In the case of `COc1cc2nc(-c3ccc(CC(=O)Nc4cc(C5(C(F)(F)F)CC5)on4)c(F)c3)cnc2cc1NCCN1CCOCC1` [Example 85, 2-(2-fluoro-4-(7-methoxy-6-((2-morpholinoethyl)amino)quinoxalin-2-yl)phenyl)-N-(5-(1-(trifluoromethyl)cyclopropyl)isoxazol-3-yl)acetamide], the dissociation constant (Kd) on KIT kinase and at FLT3 kinase was below 5 nM in each case.

For the molecule `COc1cc2nc(-c3ccc(CC(=O)Nc4cc(C(C)(C)C(F)(F)F)on4)cc3)cnc2cc1OCCN1CCOCC1` [Example 93, 2-(4-(7-methoxy-6-(2-morpholinoethoxy)quinoxalin-2-yl)phenyl)-N-(5-(1,1,1-trifluoro-2-methylpropan-2-yl)isoxazol-3-yl)acetamide], the Kd at KIT kinase and on FLT3 kinase was below 5 nM each time.

Regarding `COc1cc2nc(-c3ccc(CC(=O)Nc4cc(C5(C(F)(F)F)CC5)on4)c(F)c3)cnc2cc1OCCN1CCOCC1(C)C` [Example 96, 2-(4-(6-(2-(3,3-dimethylmorpholino)ethoxy)-7-methoxyquinoxalin-2-yl)-2-fluorophenyl)-N-(5-(1-(trifluoromethyl)cyclopropyl)isoxazol-3-yl)acetamide], the dissociation constant Kd on KIT kinase and on FLT3 kinase was below 5 nM each time.

For the molecule `CCN1CCN(CCOc2cc3ncc(-c4ccc(CC(=O)Nc5cc(C6(C(F)(F)F)CC6)on5)c(F)c4)nc3cc2OC)CC1` [Example 105, 2-[4-[6-[2-(4-ethylpiperazin-1-yl)ethoxy]-7-methoxy-quinoxalin-2-yl]-2-fluoro-phenyl]-N-[5-[1-(trifluoromethyl)cyclo-propyl]isoxazol-3-yl]acetamide], the Kd at KIT kinase and at FLT3 kinase was below 5 nM each time.

Take `COc1cc2ncc(-c3ccc(CC(=O)Nc4cc(C5(C(F)(F)F)CC5)nn4C)c(F)c3)nc2cc1OC` [Example 172, 2-[4-(6,7-dimethoxyquinoxalin-2-yl)-2-fluoro-phenyl]-N-[2-methyl-5-[1-(trifluoro-methyl)cyclopropyl]pyrazol-3-yl]acetamide]: the dissociation constant Kd at KIT kinase and at FLT3 kinase was below 5 nM in each case.

For `COc1cc2ncc(-c3ccc(CC(=O)Nc4cc(C5(C(F)(F)F)CC5)nn4C(C)(C)C)c(F)c3)nc2cc1OC` [Example 173, N-[2-tert-butyl-5-[1-(trifluoromethyl)cyclo-propyl]pyrazol-3-yl]-2-[4-(6,7-dimethoxy-quinoxalin-2-yl)-2-fluoro-phenyl]acetamide], the Kd on KIT kinase was above 50 nM; on FLT3 kinase, 5 to 20 nM.

Turning to `COc1cc2nc(-c3ccc(CC(=O)Nc4cc(C5(C(F)(F)F)CC5)on4)c(F)c3)cnc2cc1OCCN1CC(C)OC(C)C1` (stereo not drawn) [Example 174, 2-[4-[6-[2-(2,6-dimethylmorpholin-4-yl)ethoxy]-7-methoxy-quinoxalin-2-yl]-2-fluoro-phenyl]-N-[5-[1-(trifluoro-methyl)cyclo-propyl]isoxazol-3-yl]acetamide], the Kd at KIT kinase and at FLT3 kinase was below 5 nM in each case.

`CNCCOc1cc2ncc(-c3ccc(CC(=O)Nc4cc(C5(C(F)(F)F)CC5)on4)c(F)c3)nc2cc1OC` [Example 175, 2-[2-fluoro-4-[7-methoxy-6-[2-(methyl-amino)ethoxy]quinoxalin-2-yl]phenyl]-N-[5-[1-(trifluoro-methyl)cyclo-propyl]isoxazol-3-yl]acetamide]: the Kd at KIT kinase and at FLT3 kinase was below 5 nM each time.

Take `COc1cc2nc(-c3ccc(CC(=O)Nc4cc(C5(C(F)(F)F)CC5)on4)c(F)c3)cnc2cc1OCCN(C)C(C)=O` [Example 176, 2-[4-[6-[2-[acetyl(methyl)amino]ethoxy]-7-methoxy-quinoxalin-2-yl]-2-fluoro-phenyl]-N-[5-[1-(trifluoromethyl)cyclo-propyl]isoxazol-3-yl]acetamide]: the dissociation constant Kd on KIT kinase and at FLT3 kinase was below 5 nM in each case.

As to `COCCOc1cc2cc(-c3ccc(CC(=O)Nc4cc(C(C)(C)C(F)(F)F)on4)c(F)c3)cnc2cc1OC` [Example 177, 2-[2-fluoro-4-[7-methoxy-6-(2-methoxyethoxy)-3-quinolyl]phenyl]-N-[5-(2,2,2-trifluoro-1,1-dimethyl-ethyl)isoxazol-3-yl]acetamide], the dissociation constant Kd on KIT kinase and at FLT3 kinase was below 5 nM each time.

On to `COc1cc2ncc(-c3ccc(CC(=O)Nc4cc(C(C)(C)C(F)(F)F)on4)c(F)c3)cc2cc1OCCO` [Example 178, 2-[2-fluoro-4-[6-(2-hydroxyethoxy)-7-methoxy-3-quinolyl]phenyl]-N-[5-(2,2,2-trifluoro-1,1-dimethyl-ethyl)isoxazol-3-yl]acetamide], for which the Kd on KIT kinase and on FLT3 kinase was below 5 nM in each case.

As for `COc1cc2ncc(-c3ccc(CC(=O)Nc4cc(C5(C(F)(F)F)CC5)on4)c(F)c3)cc2cc1OCCO` [Example 179, 2-[2-fluoro-4-[6-(2-hydroxyethoxy)-7-methoxy-3-quinolyl]phenyl]-N-[5-[1-(trifluoromethyl)cyclo-propyl]isoxazol-3-yl]acetamide], the Kd on KIT kinase and on FLT3 kinase was below 5 nM each time.

As to `COc1cc2ncc(-c3ccc(CC(=O)Nc4cc(C5(C(F)(F)F)CC5)n[nH]4)c(F)c3)nc2cc1OC` [Example 180, 2-[4-(6,7-dimethoxyquinoxalin-2-yl)-2-fluoro-phenyl]-N-[3-[1-(trifluoromethyl)cyclo-propyl]-1H-pyrazol-5-yl]acetamide], the Kd at KIT kinase and at FLT3 kinase was below 5 nM throughout.

On to `COc1cc2ncc(-c3ccc(CC(=O)Nc4cc(C(C)(C)C(F)(F)F)nn4C)c(F)c3)nc2cc1OC` [Example 181, 2-[4-(6,7-dimethoxyquinoxalin-2-yl)-2-fluoro-phenyl]-N-[2-methyl-5-(2,2,2-trifluoro-1,1-dimethyl-ethyl)pyrazol-3-yl]acetamide], for which the Kd on KIT kinase and on FLT3 kinase was below 5 nM each time.

On to `COc1cc2ncc(-c3ccc(CC(=O)Nc4cc(C(C)(C)C(F)(F)F)n[nH]4)c(F)c3)nc2cc1OC` [Example 182, 2-[4-(6,7-dimethoxyquinoxalin-2-yl)-2-fluoro-phenyl]-N-[3-(2,2,2-trifluoro-1,1-dimethyl-ethyl)-1H-pyrazol-5-yl]acetamide], for which the Kd on KIT kinase and on FLT3 kinase was below 5 nM in each case.
